Assay results published in patent US11285156B2, “Substituted piperazines as KRAS G12C inhibitors” (Amgen Inc., priority 2018, dated 2022).

Molecular target: GDP-bound KRAS protein (aa 1-169), containing both G12C and C118A amino acid substitutions (Homo sapiens (Human), UniProt P01116, C118A/G12C)
Experiment: Coupled nucleotide exchange assay (SOS-mediated nucleotide exchange, AlphaScreen)
Assay type: biochemical
Conditions: 5 min compound pre-incubation; for IC50: read-out: Coupled exchange IC50 (5 min; μM)

GDP-bound KRAS protein (aa 1-169), containing both G12C and C118A amino acid substitutions, sequence (P01116 other isoform, or with tags, fused parts or gaps G12C/C118A): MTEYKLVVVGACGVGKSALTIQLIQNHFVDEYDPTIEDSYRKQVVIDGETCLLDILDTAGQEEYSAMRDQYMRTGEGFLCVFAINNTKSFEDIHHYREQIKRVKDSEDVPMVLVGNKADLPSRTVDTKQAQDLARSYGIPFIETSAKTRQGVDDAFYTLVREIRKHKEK

Compound | IC50 [µM] | Coupled exchange IC50 (5 min; μM) [µM]
C=CC(=O)N1C[C@H](C)N(c2nc(=O)n(-c3c(C)ccnc3C(C)C)c3nc(C4=CCOCC4)c(Cl)cc23)C[C@H]1C (atropisomer, axis not shown; (M)) [Example 92-9, (M)-6-Chloro-7-(3,6-dihydro-2H-pyran-4-yl)-4-[(2S,5R)-2,5-dimethyl-4-prop-2-enoyl-piperazin-1-yl]-1-(2-isopropyl-4-methyl-3-pyridyl)pyrido [2,3-d]pyrimidin-2-one] | 8.53 | 
C=CC(=O)N1C[C@H](C)N(c2nc(=O)n(-c3c(C)nc(Br)nc3C(C)C)c3nc(-c4ccccc4F)c(Cl)cc23)C[C@H]1C (single isomer, unassigned) [Example 197-1] |  | 1.59
C=CC(=O)N1C[C@H](C)N(c2nc(=O)n(-c3c(C)ccnc3C(C)C)c3nc(-c4cc(O)cc5ccccc45)c(F)cc23)C[C@H]1C (atropisomer, axis not shown; (M)) [Example 132-2, (M)-4-[(2S,5R)-2,5-dimethyl-4-prop-2-enoyl-piperazin-1-yl]-6-fluoro-7-(3-hydroxy-1-naphthyl)-1-(2-isopropyl-4-methyl-3-pyridyl)pyrido[2,3-d]pyrimidin-2-one] | 0.57 | 
C=CC(=O)N1C[C@H]2CCC[C@@H](C1)N2c1nc(=O)n(-c2c(C)ccnc2C(C)C)c2nc(-c3ccccc3F)c(Cl)cc12 (atropisomer, axis not shown; (M)) [Example 79-12, (M)-6-Chloro-7-(2-fluorophenyl)-1-(2-isopropyl-4-methyl-3-pyridyl)-4-[(1S,5R)-3-prop-2-enoyl-3,9-diazabicyclo[3.3.1]nonan-9-yl]pyrido[2,3-d]pyrimidin-2-one] | 5.46 | 
C=CC(=O)N1CCN(c2nc(=O)n(-c3c(C)ccnc3C(C)C)c3nc(-c4c(O)cccc4F)c(F)cc23)C(C)C1C (single isomer, unassigned) [Example 124-14-2, 4-[cis-2,3-dimethyl-4-prop-2-enoyl-piperazin-1-yl]-6-fluoro-7-(2-fluoro-6-hydroxy-phenyl)-1-(2-isopropyl-4-methyl-3-pyridyl)pyrido[2,3-d]pyrimidin-2-one] | 59.5 | 
C=CC(=O)N1CCN(c2nc(=O)n(-c3c(C)ccnc3C(C)C)c3nc(-c4c(O)cccc4F)c(F)cc23)C(C)C1C (single isomer, unassigned) [Example 124-14-1, 4-[cis-2,3-dimethyl-4-prop-2-enoyl-piperazin-1-yl]-6-fluoro-7-(2-fluoro-6-hydroxy-phenyl)-1-(2-isopropyl-4-methyl-3-pyridyl)pyrido[2,3-d]pyrimidin-2-one] | 22.2 | 
C=CC(=O)N1C[C@H](C)N(c2nc(=O)n(-c3c(C)ccnc3C(C)C)c3[nH]c(=O)c(Cl)cc23)C[C@H]1C (atropisomer, axis not shown; (M)) [Example 92-22, (M)-6-Chloro-4-[(2S,5R)-2,5-dimethyl-4-prop-2-enoyl-piperazin-1-yl]-1-(2-isopropyl-4-methyl-3-pyridyl)-8H-pyrido[2,3-d]pyrimidine-2,7-dione] | 2.94 | 
C=CC(=O)N1C[C@H](C)N(c2nc(=O)n(-c3c(C)cc(CC)nc3C(C)C)c3nc(-c4ccccc4F)c(Cl)cc23)C[C@H]1C (single isomer, unassigned) [Example 166-2] |  | 1.032
C=CC(=O)N1C[C@H](C)N(c2n/c(=N\C)n(CC(C)(C)C)c3nc(-c4ccccc4F)c(Cl)cc23)C[C@H]1C [Example 151, 1-((2R,5S)-4-((Z)-6-Chloro-7-(2-fluorophenyl)-2-(methylimino)-1-neopentyl-1,2-dihydropyrido[2,3-d]pyrimidin-4-yl)-2,5-dimethylpiperazin-1-yl)prop-2-en-1-one 2,2,2-trifluoroacetate] | 0.348 | 
C=CC(=O)N1C[C@H](C)N(c2nc(=O)n(-c3c(C)ccnc3C(C)C)c3nc(-c4cc(F)ccc4F)c(F)cc23)C[C@H]1C (atropisomer, axis not shown; (M)) [Example 94-3, (M)-7-(2,5-difluorophenyl)-4-[(2S,5R)-2,5-dimethyl-4-prop-2-enoyl-piperazin-1-yl]-6-fluoro-1-(2~ isopropyl-4-methyl-3-pyridyl)pyrido [2,3-d]pyrimidin-2-one] | 0.684 | 
C=CC(=O)N1C[C@H](C)N(c2nc(=O)n(-c3c(C)ccnc3C(C)C)c3nc(-c4scnc4C)c(Cl)cc23)C[C@H]1C (atropisomer, axis not shown; (M)) [Example 92-72, (M)-6-Chloro-4-[(2S,5R)-2,5-dimethyl-4-prop-2-enoyl-piperazin-1-yl]-1-(2-isopropyl-4-methyl-3-pyridyl)-7-(4-methylthiazol-5-yl)pyrido[2,3-d]pyrimidin-2-one] | 8.87 | 
C=CC(=O)N1C[C@H](C)N(c2nc(=O)n(-c3c(C)ccnc3C(C)C)c3nc(-c4ccccc4N)c(F)cc23)C[C@H]1C (atropisomer, axis not shown; (M)) [Example 94-20, (M)-7-(2-Aminophenyl)-4-[(2S,5R)-2,5-dimethyl-4-prop-2-enoyl-piperazin-1-yl]-6-fluoro-1-(2-isopropyl-4-methyl-3-pyridyl)pyrido [2,3-d]pyrimidin-2-one] | 0.452 | 
C=CC(=O)N1C[C@H](C)N(c2nc(=O)n(-c3c(C)ccnc3C(C)C)c3nc(-c4ccccc4F)c(C)nc23)C[C@H]1C (single isomer, unassigned) [Example 225-1] | 7.62 | 
[2H]C1([2H])N(C(=O)C=C)C([2H])([2H])C([2H])([2H])N(c2nc(=O)n(-c3c(C)ccnc3C(C)C)c3nc(-c4c(O)cccc4F)c(F)cc23)C1([2H])[2H] (atropisomer, axis not shown; (M)) [Example 72-22, (M)-6-Fluoro-7-(2-fluoro-6-hydroxy-phenyl)-1-(2-isopropyl-4-methyl-3-pyridyl)-4-(2,2,3,3,5,5,6,6-octadeuterio-4-prop-2-enoyl-piperazin-1-yl)pyrido[2,3-d]pyrimidin-2-one] |  | 0.408
C=CC(=O)N1C[C@H](C)N(c2nc(=O)n(-c3c(CN(C)C)cccc3C(C)C)c3nc(-c4ccccc4F)c(Cl)cc23)C[C@H]1C (single isomer, unassigned) [Example 80-14-1] | 1.26 | 
C=CC(=O)N1C[C@H](C)N(c2nc(=O)n(-c3c(N(C)C)ccnc3C(C)C)c3nc(-c4ccccc4C(C)C)c(Cl)cc23)C[C@H]1C (single isomer, unassigned) [Example 103-1-1] | 1.26 | 
C=CC(=O)N1C[C@H](C)N(c2nc(=O)n(-c3c(C)ccnc3C(C)C)c3nc(N4CCCC4C(F)F)c(Cl)cc23)C[C@H]1C (atropisomer, axis not shown; (M)) [Example 69-10, (M)-6-Chloro-7-[2-(difluoromethyl)pyrrolidin-1-yl]-4-[(2S,5R)-2,5-dimethyl-4-prop-2-enoyl-piperazin-1-yl]-1-(2-isopropyl-4-methyl-3-pyridyl)pyrido[2,3-d]pyrimidin-2-one] | 11 | 
C=CC(=O)N1CCN(c2nc(=O)n(-c3c(C)cc(N)nc3C(C)C)c3nc(-c4ccccc4F)c(Cl)cc23)[C@@H](C)C1 (single isomer, unassigned) [Example 183-1] |  | 0.61
C=CC(=O)N1C[C@H](C)N(c2nc(=O)n(-c3c(C)ccnc3C(C)C)c3nc(-c4ccccc4F)c(C)nc23)C[C@H]1C (single isomer, unassigned) [Example 225] | 4.43 | 
C=CC(=O)N1C[C@H](C)N(c2nc(=O)n(-c3c(C)ccnc3C(C)C)c3nc(C4CC4)c(Cl)cc23)C[C@H]1C (atropisomer, axis not shown; (M)) [Example 95-4, (M)-6-chloro-7-cyclopropyl-4-[(2S,5R)-2,5-dimethyl-4-prop-2-enoyl-piperazin-1-yl]-1-(2-isopropyl-4-methyl-3-pyridyl)pyrido [2,3-d]pyrimidin-2-one] | 0.571 | 
C=CC(=O)N1CCN(c2nc(=O)n(-c3c(C)ccnc3C(C)C)c3nc(-c4ccccc4F)c(Cl)cc23)[C@@H]2C[C@@H]21 (atropisomer, axis not shown; (M)) [Example 222-1, (M)-4-((1R,6S)-5-Acryloyl-2,5-diazabicyclo[4.1.0]heptan-2-yl)-6-chloro-7-(2-fluorophenyl)-1-(2-isopropyl-4-methylpyridin-3-yl)pyrido[2,3-d]pyrimidin-2(1H)-one] | 0.95 | 
C=CC(=O)N1C[C@H](C)N(c2nc(=O)n(-c3c(C)cc(CN(C)C)cc3C(C)C)c3nc(-c4c(O)cccc4F)c(F)cc23)C[C@H]1C (single isomer, unassigned) [Example 80-21-1] | 0.949 | 
C=CC(=O)N1C[C@H](C)N(C2=NCC(=O)N(c3c(C)ccnc3C(C)C)c3nc(-c4ccccc4F)c(Cl)cc32)C[C@H]1C [Example 219, 5-((2S,5R)-4-Acryloyl-2,5-dimethylpiperazin-1-yl)-7-chloro-8-(2-fluorophenyl)-1-(2-isopropyl-4-methylpyridin-3-yl)-1,3-dihydro-2H-pyrido[2,3-e][1,4]diazepin-2-one] | 250 | 
C=CC(=O)N1CCN(c2nc(=O)n(CC(C)(C)C)c3ncccc23)CC1 [Example 100-6, 1-(2,2-dimethylpropyl)-4-(4-prop-2-enoylpiperazin-1-yl)pyrido[2,3-d]pyrimidin-2-one] | 250 | 
C=CC(=O)N1C[C@H](C)N(c2nc(=O)n(-c3c(C)ccnc3C(C)C)c3nc(-c4cc(OC)cc5ccccc45)c(F)cc23)C[C@H]1C (atropisomer, axis not shown; (M)) [Example 94-21, (M)-4-[(2S,5R)-2,5-Dimethyl-4-prop-2-enoyl-piperazin-1-yl]-6-fluoro-1-(2-isopropyl-4-methyl-3-pyridyl)-7-(3-methoxy-1-naphthyl)pyrido[2,3-d]pyrimidin-2-one] | 32.4 | 
C=CC(=O)N1C[C@H](C)N(c2nc(=O)n(-c3c(C(C)C)nc(-c4ccoc4)nc3C(C)C)c3nc(-c4ccccc4F)c(Cl)cc23)C[C@H]1C [Example 171, 6-Chloro-4-[(2S,5R)-2,5-dimethyl-4-prop-2-enoyl-piperazin-1-yl]-7-(2-fluorophenyl)-1-[2-(3-furyl)-4,6-diisopropyl-pyrimidin-5-yl]pyrido[2,3-d]pyrimidin-2-one] | 0.206 | 
